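Five concentrations, 48 hours, 96-well plates. TGI marks complete inhibition of growth.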
Tests used:
Assay in all cases: growth of human tumour cells (NCI), 48 h
[1] = system: SNB-75 CNS
[2] = system: SF-539 CNS
[3] = system: MOLT-4 leukemia
[4] = system: HT29 colon
[5] = system: PC-3 prostate
[6] = system: OVCAR-5 ovarian
[7] = system: M14 melanoma
[8] = system: NCI-H522 lung
[9] = system: SK-MEL-2 melanoma
[10] = system: U251 CNS
[11] = system: SK-MEL-28 melanoma
[12] = system: HOP-62 NSCLC
[13] = system: 786-0 renal
[14] = system: HCT-15 colon
[15] = system: SF-295 CNS
[16] = system: MCF7 breast
[17] = system: UACC-62 melanoma
[18] = system: OVCAR-3 ovarian
[19] = system: A549 NSCLC
[20] = system: DU-145 prostate
[21] = system: UO-31 renal
[22] = system: HS 578T breast
[23] = system: OVCAR-8 ovarian
[24] = system: ACHN renal
[25] = system: TK-10 renal
[26] = system: MALME-3M melanoma
[27] = system: HCT-116 colon
[28] = system: UACC-257 melanoma
[29] = system: LOX IMVI melanoma
[30] = system: EKVX NSCLC
[31] = system: K-562 leukemia
[32] = system: NCI/ADR-RES ovarian
[33] = system: MDA-MB-231 breast
[34] = system: NCI-H226 lung
[35] = system: SW-620 colon
[36] = system: IGROV1 ovarian
[37] = system: OVCAR-4 ovarian
[38] = system: KM12 colon
[39] = system: CAKI-1 renal
[40] = system: BT-549 breast
[41] = system: A498 renal
[42] = system: SR leukemia
[43] = system: SF-268 CNS
[44] = system: NCI-H460 lung
[45] = system: RPMI-8226 leukemia
[46] = system: HOP-92 NSCLC
[47] = system: MDA-N
[48] = system: RXF 393 renal
[49] = system: SN12C renal
[50] = system: SNB-19 CNS
[51] = system: COLO 205 colon
[52] = system: NCI-H23 lung
[53] = system: HL-60(TB) leukemia
[54] = system: T-47D breast
[55] = system: SK-MEL-5 melanoma
[56] = system: MDA-MB-435
[57] = system: HCC-2998 colon
[58] = system: CCRF-CEM leukemia
[59] = system: SK-OV-3 ovarian

O=C(O)CCC[C@]1(O)O[C@@]2(CCCC2=O)[C@]2(O)CCC[C@@]21O
TGI [1]: > 100 µM | TGI [2]: > 100 µM | TGI [3]: > 100 µM | TGI [4]: > 100 µM | TGI [5]: > 100 µM | TGI [6]: > 100 µM | TGI [7]: > 100 µM | TGI [8]: 0.228 µM | TGI [9]: > 100 µM | TGI [10]: > 100 µM | TGI [11]: > 100 µM | TGI [12]: > 100 µM | TGI [13]: > 100 µM | TGI [14]: > 100 µM | TGI [15]: 64.4 µM | TGI [16]: > 100 µM | TGI [17]: > 100 µM | TGI [18]: > 100 µM | TGI [19]: > 100 µM | TGI [20]: > 100 µM | TGI [21]: > 100 µM | TGI [22]: > 100 µM | TGI [23]: > 100 µM | TGI [24]: > 100 µM | TGI [25]: > 100 µM | TGI [26]: > 100 µM | TGI [27]: > 100 µM | TGI [28]: > 100 µM | TGI [29]: > 100 µM | TGI [30]: > 100 µM | TGI [31]: > 100 µM | TGI [32]: > 100 µM | TGI [33]: > 100 µM | TGI [34]: > 100 µM | TGI [35]: > 100 µM | TGI [36]: > 100 µM | TGI [37]: > 100 µM | TGI [38]: > 100 µM | TGI [39]: > 100 µM | TGI [40]: > 100 µM | TGI [41]: > 100 µM | TGI [42]: > 100 µM | TGI [43]: > 100 µM | TGI [44]: > 100 µM | TGI [45]: > 100 µM | TGI [46]: > 100 µM | TGI [47]: > 100 µM | TGI [48]: > 100 µM | TGI [49]: > 100 µM | TGI [50]: > 100 µM | TGI [51]: > 100 µM | TGI [52]: > 100 µM | TGI [53]: > 100 µM | TGI [54]: > 100 µM | TGI [55]: > 100 µM

COc1ccc(CCCNC(=O)Cc2ccccc2CO)cc1OC
TGI [1]: > 100 µM | TGI [3]: > 100 µM | TGI [4]: > 100 µM | TGI [5]: > 100 µM | TGI [6]: > 100 µM | TGI [7]: > 100 µM | TGI [9]: > 100 µM | TGI [10]: > 100 µM | TGI [11]: > 100 µM | TGI [12]: > 100 µM | TGI [13]: > 100 µM | TGI [14]: > 100 µM | TGI [56]: > 100 µM | TGI [17]: > 100 µM | TGI [18]: > 100 µM | TGI [57]: > 100 µM | TGI [19]: > 100 µM | TGI [20]: > 100 µM | TGI [21]: > 100 µM | TGI [22]: > 100 µM | TGI [23]: > 100 µM | TGI [24]: > 100 µM | TGI [25]: > 100 µM | TGI [26]: > 100 µM | TGI [27]: > 100 µM | TGI [28]: > 100 µM | TGI [29]: > 100 µM | TGI [30]: > 100 µM | TGI [31]: > 100 µM | TGI [32]: > 100 µM | TGI [33]: > 100 µM | TGI [34]: > 100 µM | TGI [35]: > 100 µM | TGI [36]: > 100 µM | TGI [37]: > 100 µM | TGI [38]: > 100 µM | TGI [39]: > 100 µM | TGI [40]: > 100 µM | TGI [41]: > 100 µM | TGI [58]: > 100 µM | TGI [42]: > 100 µM | TGI [44]: > 100 µM | TGI [46]: > 100 µM | TGI [47]: > 100 µM | TGI [49]: > 100 µM | TGI [50]: > 100 µM | TGI [51]: > 100 µM | TGI [52]: > 100 µM | TGI [53]: > 100 µM | TGI [54]: > 100 µM | TGI [55]: > 100 µM

C/C(=N\NC(=S)N1CCN(c2ccccn2)CC1)c1cccc(C)n1
TGI [1]: 12.5 µM | TGI [2]: 6.12 µM | TGI [3]: 53.2 µM | TGI [4]: 14.5 µM | TGI [6]: 13.3 µM | TGI [7]: 9.23 µM | TGI [8]: 0.59 µM | TGI [9]: 6.78 µM | TGI [10]: 17.5 µM | TGI [11]: 25.3 µM | TGI [12]: 20.1 µM | TGI [13]: 3.31 µM | TGI [14]: 16 µM | TGI [15]: 12.3 µM | TGI [56]: 17.4 µM | TGI [16]: 12.4 µM | TGI [17]: 7.16 µM | TGI [57]: 24.8 µM | TGI [19]: 18.5 µM | TGI [20]: 14.6 µM | TGI [21]: 30.6 µM | TGI [22]: 43.5 µM | TGI [23]: 14.1 µM | TGI [24]: 12.7 µM | TGI [25]: 21.5 µM | TGI [26]: 19.3 µM | TGI [27]: 10.5 µM | TGI [28]: 16.8 µM | TGI [29]: 17.8 µM | TGI [30]: 10.5 µM | TGI [31]: > 38.2 µM | TGI [32]: 27.5 µM | TGI [33]: 13.1 µM | TGI [34]: 9.38 µM | TGI [35]: 14.2 µM | TGI [36]: 4.01 µM | TGI [38]: 18 µM | TGI [40]: 18 µM | TGI [41]: 6.33 µM | TGI [58]: > 100 µM | TGI [59]: 21.4 µM | TGI [42]: > 100 µM | TGI [43]: 19.9 µM | TGI [44]: 11.9 µM | TGI [45]: 12.6 µM | TGI [46]: 14.3 µM | TGI [47]: 17.8 µM | TGI [48]: 4.98 µM | TGI [49]: 21.9 µM | TGI [50]: 19.9 µM | TGI [51]: 11.3 µM | TGI [52]: 21.8 µM | TGI [53]: 17.6 µM | TGI [54]: 35 µM | TGI [55]: 7.06 µM

Reference: PubChem BioAssay (NCI)
